Assay results published in the supplement of paper PMC10883282.

Key:
Experiment in all cases: relative viability vs DMSO control (72 h) (fraction); higher = more viable cells
G401 = test system: G401
In short: (§1)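 ATPLite readings, expressed as percent growth and averaged over up to triplicate wells, provided relative viability. Before reading, sarcoma cell lines seeded in 384-well plates to reach 80–90% confluence received 2.5 µl of serially diluted compound after 24 h, from source plates of 10 mM to 0.0002 mM. Plates were held 72 h at 37 °C, 5% CO2, with 0.1% DMSO as vehicle and a 5 µM positive control. The data were rescaled to 1 for full and 0 for none.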

A204 = test system: A204
In short: as §1

SW1353 = test system: SW1353
In short: as §1

SK-ES-1 = test system: SK-ES-1
In short: as §1

HT1080 = test system: HT1080
In short: as §1

SW684 = test system: SW684
In short: as §1

SW982 = test system: SW982
In short: as §1

SW872 = test system: SW872
In short: as §1

RD-ES = test system: RD-ES
In short: as §1

KHOS-240S = test system: KHOS-240S
In short: as §1

KHOS-NP = test system: KHOS-NP
In short: as §1

SYO-1 = test system: SYO-1
In short: as §1

CCOc1cc2ncc(C#N)c(Nc3ccc(OCc4ccccn4)c(Cl)c3)c2cc1NC(=O)/C=C/CN(C)C [Neratinib]
Conditions	relative viability
A204, 0.00017 µM	1.09
A204, 0.00051 µM	1.09
A204, 0.00152 µM	1.08
A204, 0.00457 µM	1.097
A204, 0.01372 µM	1.03
A204, 0.04115 µM	1.06
A204, 0.1235 µM	1.01
A204, 0.3704 µM	0.665
A204, 1.111 µM	0.395
A204, 3.333 µM	0.338
A204, 10 µM	-0.00133
G401, 0.00017 µM	1.02
G401, 0.00051 µM	1
G401, 0.00152 µM	0.998
G401, 0.00457 µM	0.992
G401, 0.01372 µM	1
G401, 0.04115 µM	0.95
G401, 0.1235 µM	0.93
G401, 0.3704 µM	0.791
G401, 1.111 µM	0.692
G401, 3.333 µM	0.56
G401, 10 µM	0.0616
HT1080, 0.00017 µM	1.05
HT1080, 0.00051 µM	1.05
HT1080, 0.00152 µM	1.028
HT1080, 0.00457 µM	1.04
HT1080, 0.01372 µM	1.047
HT1080, 0.04115 µM	1.07
HT1080, 0.1235 µM	1.08
HT1080, 0.3704 µM	0.992
HT1080, 1.111 µM	0.726
HT1080, 3.333 µM	0.603
HT1080, 10 µM	0.00637
KHOS-240S, 0.00017 µM	1.03
KHOS-240S, 0.00051 µM	1.06
KHOS-240S, 0.00152 µM	1.06
KHOS-240S, 0.00457 µM	1.06
KHOS-240S, 0.01372 µM	1.05
KHOS-240S, 0.04115 µM	1.03
KHOS-240S, 0.1235 µM	1
KHOS-240S, 0.3704 µM	0.896
KHOS-240S, 1.111 µM	0.741
KHOS-240S, 3.333 µM	0.618
KHOS-240S, 10 µM	0.338
KHOS-NP, 0.00017 µM	1.042
KHOS-NP, 0.00051 µM	1.022
KHOS-NP, 0.00152 µM	1.022
KHOS-NP, 0.00457 µM	1.01
KHOS-NP, 0.01372 µM	1.04
KHOS-NP, 0.04115 µM	1.01
KHOS-NP, 0.1235 µM	1.05
KHOS-NP, 0.3704 µM	1.02
KHOS-NP, 1.111 µM	0.73
KHOS-NP, 3.333 µM	0.484
KHOS-NP, 10 µM	0.486
RD-ES, 0.00017 µM	1.03
RD-ES, 0.00051 µM	1.01
RD-ES, 0.00152 µM	0.999
RD-ES, 0.00457 µM	0.996
RD-ES, 0.01372 µM	0.997
RD-ES, 0.04115 µM	0.977
RD-ES, 0.1235 µM	0.938
RD-ES, 0.3704 µM	0.737
RD-ES, 1.111 µM	0.498
RD-ES, 3.333 µM	0.431
RD-ES, 10 µM	0.345
SK-ES-1, 0.00017 µM	1.05
SK-ES-1, 0.00051 µM	1.02
SK-ES-1, 0.00152 µM	1.04
SK-ES-1, 0.00457 µM	1.01
SK-ES-1, 0.01372 µM	1.01
SK-ES-1, 0.04115 µM	0.963
SK-ES-1, 0.1235 µM	0.797
SK-ES-1, 0.3704 µM	0.397
SK-ES-1, 1.111 µM	0.298
SK-ES-1, 3.333 µM	0.235
SK-ES-1, 10 µM	0.00187
SW684, 0.00017 µM	1.16
SW684, 0.00051 µM	1.1
SW684, 0.00152 µM	1.11
SW684, 0.00457 µM	1.13
SW684, 0.01372 µM	1.16
SW684, 0.04115 µM	1.116
SW684, 0.1235 µM	1.06
SW684, 0.3704 µM	0.848
SW684, 1.111 µM	0.826
SW684, 3.333 µM	0.792
SW684, 10 µM	-0.0161
SW872, 0.00017 µM	1.03
SW872, 0.00051 µM	1.02
SW872, 0.00152 µM	1.03
SW872, 0.00457 µM	1.03
SW872, 0.01372 µM	1.01
SW872, 0.04115 µM	0.97
SW872, 0.1235 µM	0.932
SW872, 0.3704 µM	0.76
SW872, 1.111 µM	0.609
SW872, 3.333 µM	0.492
SW872, 10 µM	-0.00553
SW982, 0.00017 µM	1.06
SW982, 0.00051 µM	1.07
SW982, 0.00152 µM	1.05
SW982, 0.00457 µM	1.04
SW982, 0.01372 µM	1.05
SW982, 0.04115 µM	1
SW982, 0.1235 µM	0.87
SW982, 0.3704 µM	0.483
SW982, 1.111 µM	0.379
SW982, 3.333 µM	0.215
SW982, 10 µM	0.0234
SW1353, 0.00017 µM	0.971
SW1353, 0.00051 µM	0.955
SW1353, 0.00152 µM	0.923
SW1353, 0.00457 µM	0.934
SW1353, 0.01372 µM	0.899
SW1353, 0.04115 µM	0.807
SW1353, 0.1235 µM	0.71
SW1353, 0.3704 µM	0.568
SW1353, 1.111 µM	0.525
SW1353, 3.333 µM	0.426
SW1353, 10 µM	0.0062
SYO-1, 0.00017 µM	0.957
SYO-1, 0.00051 µM	0.955
SYO-1, 0.00152 µM	0.938
SYO-1, 0.00457 µM	0.932
SYO-1, 0.01372 µM	0.931
SYO-1, 0.04115 µM	0.917
SYO-1, 0.1235 µM	0.875
SYO-1, 0.3704 µM	0.716
SYO-1, 1.111 µM	0.581
SYO-1, 3.333 µM	0.431
SYO-1, 10 µM	-0.0166

CNC(=O)c1cccc2cc(Oc3ccnc4cc(OCC5(N)CC5)c(OC)cc34)ccc12 [Lucitanib]
Conditions	relative viability
A204, 0.00017 µM	1.04
A204, 0.00051 µM	1.07
A204, 0.00152 µM	1.04
A204, 0.00457 µM	1.01
A204, 0.01372 µM	0.859
A204, 0.04115 µM	0.584
A204, 0.1235 µM	0.421
A204, 0.3704 µM	0.391
A204, 1.111 µM	0.265
A204, 3.333 µM	0.172
A204, 10 µM	0.153
G401, 0.00017 µM	1.07
G401, 0.00051 µM	1.04
G401, 0.00152 µM	1.02
G401, 0.00457 µM	0.989
G401, 0.01372 µM	1
G401, 0.04115 µM	1.01
G401, 0.1235 µM	0.964
G401, 0.3704 µM	0.888
G401, 1.111 µM	0.641
G401, 3.333 µM	0.451
G401, 10 µM	0.349
HT1080, 0.00017 µM	1.08
HT1080, 0.00051 µM	1.09
HT1080, 0.00152 µM	1.1
HT1080, 0.00457 µM	1.07
HT1080, 0.01372 µM	1.1
HT1080, 0.04115 µM	1.09
HT1080, 0.1235 µM	1.095
HT1080, 0.3704 µM	1.09
HT1080, 1.111 µM	1.11
HT1080, 3.333 µM	1.12
HT1080, 10 µM	1.14
KHOS-240S, 0.00017 µM	1.1
KHOS-240S, 0.00051 µM	1.05
KHOS-240S, 0.00152 µM	1.1
KHOS-240S, 0.00457 µM	1.06
KHOS-240S, 0.01372 µM	1.07
KHOS-240S, 0.04115 µM	1.05
KHOS-240S, 0.1235 µM	1.02
KHOS-240S, 0.3704 µM	0.946
KHOS-240S, 1.111 µM	0.817
KHOS-240S, 3.333 µM	0.771
KHOS-240S, 10 µM	0.632
KHOS-NP, 0.00017 µM	1.103
KHOS-NP, 0.00051 µM	1.13
KHOS-NP, 0.00152 µM	1.12
KHOS-NP, 0.00457 µM	1.11
KHOS-NP, 0.01372 µM	1.11
KHOS-NP, 0.04115 µM	1.11
KHOS-NP, 0.1235 µM	1.126
KHOS-NP, 0.3704 µM	1.11
KHOS-NP, 1.111 µM	1.12
KHOS-NP, 3.333 µM	1.12
KHOS-NP, 10 µM	1.13
RD-ES, 0.00017 µM	0.984
RD-ES, 0.00051 µM	1.01
RD-ES, 0.00152 µM	1
RD-ES, 0.00457 µM	1
RD-ES, 0.01372 µM	0.969
RD-ES, 0.04115 µM	0.99
RD-ES, 0.1235 µM	0.981
RD-ES, 0.3704 µM	0.949
RD-ES, 1.111 µM	0.92
RD-ES, 3.333 µM	0.882
RD-ES, 10 µM	0.798
SK-ES-1, 0.00017 µM	1.07
SK-ES-1, 0.00051 µM	1.12
SK-ES-1, 0.00152 µM	1.09
SK-ES-1, 0.00457 µM	1.11
SK-ES-1, 0.01372 µM	1.01
SK-ES-1, 0.04115 µM	1.07
SK-ES-1, 0.1235 µM	1
SK-ES-1, 0.3704 µM	1.07
SK-ES-1, 1.111 µM	1.01
SK-ES-1, 3.333 µM	0.865
SK-ES-1, 10 µM	0.531
SW684, 0.00017 µM	1.14
SW684, 0.00051 µM	1.23
SW684, 0.00152 µM	1.26
SW684, 0.00457 µM	1.23
SW684, 0.01372 µM	1.21
SW684, 0.04115 µM	1.21
SW684, 0.1235 µM	1.15
SW684, 0.3704 µM	1.18
SW684, 1.111 µM	1.19
SW684, 3.333 µM	1.12
SW684, 10 µM	1.11
SW872, 0.00017 µM	1.07
SW872, 0.00051 µM	1.08
SW872, 0.00152 µM	1.056
SW872, 0.00457 µM	1.07
SW872, 0.01372 µM	1.07
SW872, 0.04115 µM	1.059
SW872, 0.1235 µM	1.038
SW872, 0.3704 µM	1.057
SW872, 1.111 µM	1.07
SW872, 3.333 µM	1.04
SW872, 10 µM	0.961
SW982, 0.00017 µM	1.03
SW982, 0.00051 µM	1.06
SW982, 0.00152 µM	1.06
SW982, 0.00457 µM	1.049
SW982, 0.01372 µM	1.03
SW982, 0.04115 µM	1.05
SW982, 0.1235 µM	1.03
SW982, 0.3704 µM	1.04
SW982, 1.111 µM	1.03
SW982, 3.333 µM	0.972
SW982, 10 µM	0.608
SW1353, 0.00017 µM	1.11
SW1353, 0.00051 µM	1.06
SW1353, 0.00152 µM	1.04
SW1353, 0.00457 µM	1.067
SW1353, 0.01372 µM	1.03
SW1353, 0.04115 µM	0.967
SW1353, 0.1235 µM	0.938
SW1353, 0.3704 µM	0.909
SW1353, 1.111 µM	0.8515
SW1353, 3.333 µM	0.862
SW1353, 10 µM	0.874
SYO-1, 0.00017 µM	1.03
SYO-1, 0.00051 µM	1.04
SYO-1, 0.00152 µM	1.01
SYO-1, 0.00457 µM	0.984
SYO-1, 0.01372 µM	0.919
SYO-1, 0.04115 µM	0.825
SYO-1, 0.1235 µM	0.688
SYO-1, 0.3704 µM	0.561
SYO-1, 1.111 µM	0.504
SYO-1, 3.333 µM	0.49
SYO-1, 10 µM	0.385
